Columns and labels:
Assay in all cases: Kinase panel profiling
Assay type in all cases: biochemical
Details in all cases: 10 μM ATP
FGFR3 = molecular target: T1, FGFR3 (Homo sapiens, UniProt P22607)
T1 construct: purchased Reaction Biology Corp
Description: (§1) Kinase panel profiling was conducted by Reaction Biology Corp. (San Diego, CA, USA). A single dose (1.0 μM) of 6r was tested against 371 recombinant human kinases in the presence of 10 μM ATP.

COT1/MAP3K8 = molecular target: T2, COT1/MAP3K8 (Homo sapiens, UniProt P41279)
T2 construct: purchased Reaction Biology Corp
Description: as §1

RSK4 = molecular target: T3, RSK4 (Homo sapiens, UniProt Q9UK32)
T3 construct: purchased Reaction Biology Corp
Description: as §1

IGF1R = molecular target: T4, IGF1R (Homo sapiens, UniProt P08069)
T4 construct: purchased Reaction Biology Corp
Description: as §1

CDK3/cyclin E2 = molecular target: T5, CDK3/cyclin E2 (Homo sapiens, UniProt Q00526)
T5 construct: purchased Reaction Biology Corp
Description: as §1

TNK1 = molecular target: T6, TNK1 (Homo sapiens, UniProt Q13470)
T6 construct: purchased Reaction Biology Corp
Description: as §1

MARK1 = molecular target: T7, MARK1 (Homo sapiens, UniProt Q9P0L2)
T7 construct: purchased Reaction Biology Corp
Description: as §1

HIPK3 = molecular target: T8, HIPK3 (Homo sapiens, UniProt Q9H422)
T8 construct: purchased Reaction Biology Corp
Description: as §1

HPK1/MAP4K1 = molecular target: T9, HPK1/MAP4K1 (Homo sapiens, UniProt Q92918)
T9 construct: purchased Reaction Biology Corp
Description: as §1

EPHA6 = molecular target: T10, EPHA6 (Homo sapiens, UniProt Q9UF33)
T10 construct: purchased Reaction Biology Corp
Description: as §1

CAMK2a = molecular target: T11, CAMK2a (Homo sapiens, UniProt Q9UQM7)
T11 construct: purchased Reaction Biology Corp
Description: as §1

DMPK = molecular target: T12, DMPK (Homo sapiens, UniProt Q09013)
T12 construct: purchased Reaction Biology Corp
Description: as §1

MKK6 = molecular target: T13, MKK6 (Homo sapiens, UniProt P52564)
T13 construct: purchased Reaction Biology Corp
Description: as §1

PHKg2 = molecular target: T14, PHKg2 (Homo sapiens, UniProt P15735)
T14 construct: purchased Reaction Biology Corp
Description: as §1

CK1G3 = molecular target: T15, CK1G3 (Homo sapiens, UniProt Q9Y6M4)
T15 construct: purchased Reaction Biology Corp
Description: as §1

PLK1 = molecular target: T16, PLK1 (Homo sapiens, UniProt P53350)
T16 construct: purchased Reaction Biology Corp
Description: as §1

IRR/INSRR = molecular target: T17, IRR/INSRR (Homo sapiens, UniProt P14616)
T17 construct: purchased Reaction Biology Corp
Description: as §1

TAK1 = molecular target: T18, TAK1 (Homo sapiens, UniProt O43318)
T18 construct: purchased Reaction Biology Corp
Description: as §1

TGFBR2 = molecular target: T19, TGFBR2 (Homo sapiens, UniProt P37173)
T19 construct: purchased Reaction Biology Corp
Description: as §1

TYRO3/SKY = molecular target: T20, TYRO3/SKY (Homo sapiens, UniProt Q06418)
T20 construct: purchased Reaction Biology Corp
Description: as §1

CHK1 = molecular target: T21, CHK1 (Homo sapiens, UniProt O14757)
T21 construct: purchased Reaction Biology Corp
Description: as §1

FES/FPS = molecular target: T22, FES/FPS (Homo sapiens, UniProt P07332)
T22 construct: purchased Reaction Biology Corp
Description: as §1

STK38L/NDR2 = molecular target: T23, STK38L/NDR2 (Homo sapiens, UniProt Q9Y2H1)
T23 construct: purchased Reaction Biology Corp
Description: as §1

FLT3 = molecular target: T24, FLT3 (Homo sapiens, UniProt P36888)
T24 construct: purchased Reaction Biology Corp
Description: as §1

YSK4/MAP3K19 = molecular target: T25, YSK4/MAP3K19 (Homo sapiens, UniProt Q56UN5)
T25 construct: purchased Reaction Biology Corp
Description: as §1

P38b/MAPK11 = molecular target: T26, P38b/MAPK11 (Homo sapiens, UniProt Q15759)
T26 construct: purchased Reaction Biology Corp
Description: as §1

TXK = molecular target: T27, TXK (Homo sapiens, UniProt P42681)
T27 construct: purchased Reaction Biology Corp
Description: as §1

FGR = molecular target: T28, FGR (Homo sapiens, UniProt P09769)
T28 construct: purchased Reaction Biology Corp
Description: as §1

CAMK1g = molecular target: T29, CAMK1g (Homo sapiens, UniProt Q96NX5)
T29 construct: purchased Reaction Biology Corp
Description: as §1

ROCK2 = molecular target: T30, ROCK2 (Homo sapiens, UniProt O75116)
T30 construct: purchased Reaction Biology Corp
Description: as §1

JAK2 = molecular target: T31, JAK2 (Homo sapiens, UniProt O60674)
T31 construct: purchased Reaction Biology Corp
Description: as §1

BRSK2 = molecular target: T32, BRSK2 (Homo sapiens, UniProt Q8IWQ3)
T32 construct: purchased Reaction Biology Corp
Description: as §1

CDK2/CYCLIN A = molecular target: T33, CDK2/CYCLIN A (Homo sapiens, UniProt P24941)
T33 construct: purchased Reaction Biology Corp
Description: as §1

PKCeta = molecular target: T34, PKCeta (Homo sapiens, UniProt P24723)
T34 construct: purchased Reaction Biology Corp
Description: as §1

IRAK1 = molecular target: T35, IRAK1 (Homo sapiens, UniProt P51617)
T35 construct: purchased Reaction Biology Corp
Description: as §1

STK33 = molecular target: T36, STK33 (Homo sapiens, UniProt Q9BYT3)
T36 construct: purchased Reaction Biology Corp
Description: as §1

CSK = molecular target: T37, CSK (Homo sapiens, UniProt P41240)
T37 construct: purchased Reaction Biology Corp
Description: as §1

LATS2 = molecular target: T38, LATS2 (Homo sapiens, UniProt Q9NRM7)
T38 construct: purchased Reaction Biology Corp
Description: as §1

RON/MST1R = molecular target: T39, RON/MST1R (Homo sapiens, UniProt Q04912)
T39 construct: purchased Reaction Biology Corp
Description: as §1

MST3/STK24 = molecular target: T40, MST3/STK24 (Homo sapiens, UniProt Q9Y6E0)
T40 construct: purchased Reaction Biology Corp
Description: as §1

JNK3 = molecular target: T41, JNK3 (Homo sapiens, UniProt P53779)
T41 construct: purchased Reaction Biology Corp
Description: as §1

OSR1/OXSR1 = molecular target: T42, OSR1/OXSR1 (Homo sapiens, UniProt O95747)
T42 construct: purchased Reaction Biology Corp
Description: as §1

T35 sequence (P51617 whole entry): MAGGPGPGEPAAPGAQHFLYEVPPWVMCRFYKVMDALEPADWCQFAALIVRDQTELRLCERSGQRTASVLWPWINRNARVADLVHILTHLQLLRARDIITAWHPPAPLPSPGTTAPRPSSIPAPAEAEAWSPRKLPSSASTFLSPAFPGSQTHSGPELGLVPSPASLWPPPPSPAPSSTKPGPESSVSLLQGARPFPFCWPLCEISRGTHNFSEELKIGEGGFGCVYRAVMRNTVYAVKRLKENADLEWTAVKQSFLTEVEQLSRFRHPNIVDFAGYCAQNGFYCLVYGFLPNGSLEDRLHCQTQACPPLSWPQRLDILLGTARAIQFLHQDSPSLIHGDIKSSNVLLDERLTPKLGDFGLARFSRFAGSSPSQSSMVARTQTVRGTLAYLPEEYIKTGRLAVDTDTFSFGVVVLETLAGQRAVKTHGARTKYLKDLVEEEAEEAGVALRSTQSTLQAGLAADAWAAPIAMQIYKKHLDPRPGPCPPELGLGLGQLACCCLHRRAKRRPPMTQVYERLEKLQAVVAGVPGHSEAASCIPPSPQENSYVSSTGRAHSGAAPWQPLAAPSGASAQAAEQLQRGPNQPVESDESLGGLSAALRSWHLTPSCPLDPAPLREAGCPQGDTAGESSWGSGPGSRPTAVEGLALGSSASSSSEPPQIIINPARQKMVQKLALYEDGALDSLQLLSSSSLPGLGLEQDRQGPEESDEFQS
T6 sequence (Q13470 whole entry): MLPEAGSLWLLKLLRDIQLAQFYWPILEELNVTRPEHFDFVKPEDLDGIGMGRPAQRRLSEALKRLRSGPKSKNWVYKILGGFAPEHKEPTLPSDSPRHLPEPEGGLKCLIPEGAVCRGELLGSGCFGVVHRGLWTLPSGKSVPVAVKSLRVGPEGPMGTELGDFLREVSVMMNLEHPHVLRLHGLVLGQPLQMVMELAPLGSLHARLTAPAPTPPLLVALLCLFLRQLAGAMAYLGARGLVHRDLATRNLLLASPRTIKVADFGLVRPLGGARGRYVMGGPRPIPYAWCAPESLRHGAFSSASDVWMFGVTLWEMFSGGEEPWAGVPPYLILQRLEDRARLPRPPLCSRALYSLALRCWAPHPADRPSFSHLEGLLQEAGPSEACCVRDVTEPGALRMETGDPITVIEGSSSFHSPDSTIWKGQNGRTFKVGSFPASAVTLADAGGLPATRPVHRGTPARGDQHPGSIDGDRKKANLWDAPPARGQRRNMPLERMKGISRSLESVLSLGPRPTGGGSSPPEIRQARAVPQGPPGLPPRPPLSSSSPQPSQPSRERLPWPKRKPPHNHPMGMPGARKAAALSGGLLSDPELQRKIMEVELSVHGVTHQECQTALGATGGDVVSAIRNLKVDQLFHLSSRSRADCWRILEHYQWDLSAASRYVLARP
T12 sequence (Q09013 whole entry): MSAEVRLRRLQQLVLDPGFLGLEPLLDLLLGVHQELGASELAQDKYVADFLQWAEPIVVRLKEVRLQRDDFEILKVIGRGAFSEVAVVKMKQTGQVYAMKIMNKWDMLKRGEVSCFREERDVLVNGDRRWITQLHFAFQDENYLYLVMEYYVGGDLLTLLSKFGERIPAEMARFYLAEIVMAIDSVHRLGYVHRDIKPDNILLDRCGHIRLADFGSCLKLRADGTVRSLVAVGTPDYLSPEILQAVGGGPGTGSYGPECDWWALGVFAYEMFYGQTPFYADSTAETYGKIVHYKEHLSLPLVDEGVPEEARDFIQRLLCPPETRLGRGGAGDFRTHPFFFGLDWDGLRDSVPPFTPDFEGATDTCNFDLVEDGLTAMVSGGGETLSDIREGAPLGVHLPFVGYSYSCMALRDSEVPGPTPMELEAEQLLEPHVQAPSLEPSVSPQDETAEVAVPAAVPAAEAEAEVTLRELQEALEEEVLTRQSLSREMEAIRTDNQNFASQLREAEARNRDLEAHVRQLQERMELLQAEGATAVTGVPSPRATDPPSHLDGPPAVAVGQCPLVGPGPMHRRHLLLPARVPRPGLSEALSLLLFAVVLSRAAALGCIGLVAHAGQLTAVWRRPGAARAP
T4 sequence (P08069 31-1367): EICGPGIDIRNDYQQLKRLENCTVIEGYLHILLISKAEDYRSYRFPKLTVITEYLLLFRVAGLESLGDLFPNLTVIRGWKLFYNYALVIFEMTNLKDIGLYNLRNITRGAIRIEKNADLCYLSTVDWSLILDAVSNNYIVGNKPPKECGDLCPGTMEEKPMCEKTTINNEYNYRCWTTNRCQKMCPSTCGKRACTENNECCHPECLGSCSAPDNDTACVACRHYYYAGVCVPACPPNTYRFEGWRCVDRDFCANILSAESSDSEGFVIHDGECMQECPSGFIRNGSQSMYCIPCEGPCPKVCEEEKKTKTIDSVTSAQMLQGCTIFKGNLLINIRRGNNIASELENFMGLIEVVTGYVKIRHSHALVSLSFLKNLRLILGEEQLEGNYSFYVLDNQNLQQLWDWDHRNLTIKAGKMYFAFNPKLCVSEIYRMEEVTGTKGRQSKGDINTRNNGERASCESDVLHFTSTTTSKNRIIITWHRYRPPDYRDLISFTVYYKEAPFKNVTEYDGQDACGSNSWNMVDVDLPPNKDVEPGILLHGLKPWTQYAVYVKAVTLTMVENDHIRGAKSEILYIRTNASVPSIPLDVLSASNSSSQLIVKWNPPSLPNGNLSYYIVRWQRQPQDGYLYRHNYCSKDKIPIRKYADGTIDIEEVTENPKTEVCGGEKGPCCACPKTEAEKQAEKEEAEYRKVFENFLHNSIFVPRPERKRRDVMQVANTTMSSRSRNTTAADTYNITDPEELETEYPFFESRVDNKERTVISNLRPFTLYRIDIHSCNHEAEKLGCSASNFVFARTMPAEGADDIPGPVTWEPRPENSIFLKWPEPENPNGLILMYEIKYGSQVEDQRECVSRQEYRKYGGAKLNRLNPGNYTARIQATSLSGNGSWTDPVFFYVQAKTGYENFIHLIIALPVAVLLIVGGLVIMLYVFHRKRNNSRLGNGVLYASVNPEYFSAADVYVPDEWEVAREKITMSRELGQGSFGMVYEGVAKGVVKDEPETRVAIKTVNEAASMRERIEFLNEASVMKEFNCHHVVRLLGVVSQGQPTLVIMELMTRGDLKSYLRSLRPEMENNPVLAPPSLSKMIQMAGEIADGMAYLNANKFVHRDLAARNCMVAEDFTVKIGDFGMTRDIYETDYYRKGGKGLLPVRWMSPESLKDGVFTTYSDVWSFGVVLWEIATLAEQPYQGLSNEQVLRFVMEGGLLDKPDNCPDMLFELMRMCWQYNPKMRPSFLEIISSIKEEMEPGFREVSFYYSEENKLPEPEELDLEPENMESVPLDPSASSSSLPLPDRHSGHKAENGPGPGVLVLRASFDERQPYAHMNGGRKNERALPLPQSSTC
T25 sequence (Q56UN5 whole entry): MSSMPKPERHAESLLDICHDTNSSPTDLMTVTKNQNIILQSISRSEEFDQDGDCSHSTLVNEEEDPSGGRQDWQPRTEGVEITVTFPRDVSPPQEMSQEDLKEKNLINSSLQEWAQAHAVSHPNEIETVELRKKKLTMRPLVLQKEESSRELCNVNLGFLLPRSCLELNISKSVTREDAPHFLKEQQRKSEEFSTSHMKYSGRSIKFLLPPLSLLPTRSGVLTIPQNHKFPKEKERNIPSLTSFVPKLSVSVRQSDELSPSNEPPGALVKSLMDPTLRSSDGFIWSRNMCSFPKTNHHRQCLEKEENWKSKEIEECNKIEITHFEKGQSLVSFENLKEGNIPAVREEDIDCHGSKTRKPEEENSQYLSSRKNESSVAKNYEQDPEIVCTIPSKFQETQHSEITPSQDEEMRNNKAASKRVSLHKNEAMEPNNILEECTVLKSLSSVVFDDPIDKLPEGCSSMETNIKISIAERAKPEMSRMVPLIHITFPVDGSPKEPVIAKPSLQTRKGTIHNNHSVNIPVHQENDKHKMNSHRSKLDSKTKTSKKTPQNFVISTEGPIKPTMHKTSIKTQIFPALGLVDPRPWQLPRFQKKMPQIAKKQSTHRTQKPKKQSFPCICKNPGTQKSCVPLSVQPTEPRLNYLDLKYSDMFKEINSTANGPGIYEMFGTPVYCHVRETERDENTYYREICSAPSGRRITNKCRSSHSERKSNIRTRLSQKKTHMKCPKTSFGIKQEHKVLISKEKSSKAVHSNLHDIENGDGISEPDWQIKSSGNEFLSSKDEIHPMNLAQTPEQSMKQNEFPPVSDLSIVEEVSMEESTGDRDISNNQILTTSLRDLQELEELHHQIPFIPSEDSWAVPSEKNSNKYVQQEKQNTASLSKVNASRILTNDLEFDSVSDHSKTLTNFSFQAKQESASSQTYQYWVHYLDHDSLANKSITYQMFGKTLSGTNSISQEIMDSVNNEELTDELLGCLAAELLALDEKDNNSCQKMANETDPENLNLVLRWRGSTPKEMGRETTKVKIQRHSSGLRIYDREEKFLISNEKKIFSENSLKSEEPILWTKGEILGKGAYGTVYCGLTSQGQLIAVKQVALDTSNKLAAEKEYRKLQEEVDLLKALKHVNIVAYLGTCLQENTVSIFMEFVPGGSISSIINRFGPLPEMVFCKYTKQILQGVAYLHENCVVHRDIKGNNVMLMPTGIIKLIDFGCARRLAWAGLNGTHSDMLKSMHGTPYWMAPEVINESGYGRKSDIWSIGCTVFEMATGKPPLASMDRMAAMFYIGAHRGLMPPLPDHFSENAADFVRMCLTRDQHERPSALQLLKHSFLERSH
T13 sequence (P52564 whole entry): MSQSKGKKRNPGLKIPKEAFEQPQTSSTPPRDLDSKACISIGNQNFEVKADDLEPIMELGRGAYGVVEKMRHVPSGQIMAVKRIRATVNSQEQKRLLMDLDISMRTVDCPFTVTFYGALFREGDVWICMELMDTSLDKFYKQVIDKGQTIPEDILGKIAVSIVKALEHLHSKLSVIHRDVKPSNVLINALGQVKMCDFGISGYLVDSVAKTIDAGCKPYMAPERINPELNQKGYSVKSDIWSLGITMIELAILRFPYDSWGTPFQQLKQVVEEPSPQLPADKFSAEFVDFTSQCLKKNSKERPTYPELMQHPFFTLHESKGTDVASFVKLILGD

Cc1ccc(NC(=O)c2ccc(CN3CCN(C)CC3)c(C(F)(F)F)c2)cc1-c1cnc2sc(N)nc2c1 [6r]
inhibition at 1 µM (FGFR3): 0% | inhibition at 1 µM (COT1/MAP3K8): 9.2% | inhibition at 1 µM (RSK4): 1.8% | inhibition at 1 µM (IGF1R): 0% | inhibition at 1 µM (CDK3/cyclin E2): 12.4% | inhibition at 1 µM (TNK1): 36.2% | inhibition at 1 µM (MARK1): 0% | inhibition at 1 µM (HIPK3): 0.2% | inhibition at 1 µM (HPK1/MAP4K1): 0% | inhibition at 1 µM (EPHA6): 39.9% | inhibition at 1 µM (CAMK2a): 16% | inhibition at 1 µM (DMPK): 0% | inhibition at 1 µM (MKK6): 6.6% | inhibition at 1 µM (PHKg2): 5% | inhibition at 1 µM (CK1G3): 32% | inhibition at 1 µM (PLK1): 0% | inhibition at 1 µM (IRR/INSRR): 0% | inhibition at 1 µM (TAK1): 12.8% | inhibition at 1 µM (TGFBR2): 0% | inhibition at 1 µM (TYRO3/SKY): 14.6% | inhibition at 1 µM (CHK1): 9.3% | inhibition at 1 µM (FES/FPS): 39.7% | inhibition at 1 µM (STK38L/NDR2): 6.5% | inhibition at 1 µM (FLT3): 0% | inhibition at 1 µM (YSK4/MAP3K19): 0% | inhibition at 1 µM (P38b/MAPK11): 77.7% | inhibition at 1 µM (TXK): 16.8% | inhibition at 1 µM (FGR): 87.7% | inhibition at 1 µM (CAMK1g): 20.8% | inhibition at 1 µM (ROCK2): 0.6% | inhibition at 1 µM (JAK2): 2% | inhibition at 1 µM (BRSK2): 7.2% | inhibition at 1 µM (CDK2/CYCLIN A): 0% | inhibition at 1 µM (PKCeta): 3.1% | inhibition at 1 µM (IRAK1): 0% | inhibition at 1 µM (STK33): 9.5% | inhibition at 1 µM (CSK): 41.3% | inhibition at 1 µM (LATS2): 2.1% | inhibition at 1 µM (RON/MST1R): 4.5% | inhibition at 1 µM (MST3/STK24): 12.5% | inhibition at 1 µM (JNK3): 5.1% | inhibition at 1 µM (OSR1/OXSR1): 5.5%
